From PubChem BioAssay (NCI)
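A five-concentration, 48-hour dose response in 96-well plates underlies each endpoint, interpolated linearly between surrounding concentrations. The concentration for full growth arrest is given as TGI.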

Legend:
Test in all cases: NCI anticancer screen, dose series, 48 h
[1] = system: 786-0 renal
[2] = system: CAKI-1 renal
[3] = system: BT-549 breast
[4] = system: HOP-92 NSCLC
[5] = system: U251 CNS
[6] = system: CCRF-CEM leukemia
[7] = system: SK-MEL-2 melanoma
[8] = system: NCI/ADR-RES ovarian
[9] = system: OVCAR-8 ovarian
[10] = system: MDA-MB-435
[11] = system: EKVX NSCLC
[12] = system: NCI-H460 lung
[13] = system: SNB-75 CNS
[14] = system: HL-60(TB) leukemia
[15] = system: SK-MEL-28 melanoma
[16] = system: UACC-257 melanoma
[17] = system: SF-268 CNS
[18] = system: A549 NSCLC
[19] = system: PC-3 prostate
[20] = system: UACC-62 melanoma
[21] = system: LOX IMVI melanoma
[22] = system: RPMI-8226 leukemia
[23] = system: NCI-H226 lung
[24] = system: OVCAR-5 ovarian
[25] = system: HS 578T breast
[26] = system: SK-MEL-5 melanoma
[27] = system: IGROV1 ovarian
[28] = system: SK-OV-3 ovarian
[29] = system: MALME-3M melanoma
[30] = system: HCT-15 colon
[31] = system: MOLT-4 leukemia
[32] = system: SW-620 colon
[33] = system: SN12C renal
[34] = system: COLO 205 colon
[35] = system: ACHN renal
[36] = system: NCI-H23 lung
[37] = system: NCI-H522 lung
[38] = system: OVCAR-4 ovarian
[39] = system: HCT-116 colon
[40] = system: MCF7 breast
[41] = system: M14 melanoma
[42] = system: HOP-62 NSCLC
[43] = system: MDA-N
[44] = system: UO-31 renal
[45] = system: K-562 leukemia
[46] = system: SNB-19 CNS
[47] = system: SF-539 CNS
[48] = system: SF-295 CNS
[49] = system: A498 renal
[50] = system: TK-10 renal
[51] = system: HCC-2998 colon
[52] = system: MDA-MB-231 breast
[53] = system: T-47D breast
[54] = system: DU-145 prostate
[55] = system: RXF 393 renal
[56] = system: OVCAR-3 ovarian
[57] = system: HT29 colon
[58] = system: KM12 colon
[59] = system: SR leukemia

Work on `NC(Cc1ccccc1)C(=O)O` (centres undefined) yielded a TGI [1] greater than 100 µM, a TGI [2] greater than 100 µM and a TGI [3] greater than 100 µM. For the same molecule, the TGI [4] was greater than 100 µM, the TGI [5] was greater than 100 µM and the TGI [6] was greater than 100 µM. For the same molecule, the TGI [7] was greater than 100 µM, the TGI [8] was greater than 100 µM and the TGI [9] was greater than 100 µM. The TGI [10] was greater than 100 µM, the TGI [11] was greater than 100 µM and the TGI [12] was greater than 100 µM. For the same molecule, the TGI [13] was greater than 100 µM, the TGI [14] was greater than 100 µM and the TGI [15] was greater than 100 µM. It also gave a TGI [16] greater than 100 µM, a TGI [17] greater than 100 µM and a TGI [18] greater than 100 µM. The TGI [19] was greater than 100 µM, the TGI [20] was greater than 100 µM and the TGI [21] was greater than 100 µM. It also gave a TGI [22] greater than 100 µM, a TGI [23] greater than 100 µM and a TGI [24] greater than 100 µM. For the same molecule, the TGI [25] was greater than 100 µM, the TGI [26] was greater than 100 µM and the TGI [27] was greater than 100 µM. For the same molecule, the TGI [28] was greater than 100 µM, the TGI [29] was greater than 100 µM and the TGI [30] was greater than 100 µM. For the same molecule, the TGI [31] was greater than 100 µM, the TGI [32] was greater than 100 µM and the TGI [33] was greater than 100 µM. It also gave a TGI [34] greater than 100 µM, a TGI [35] greater than 100 µM and a TGI [36] greater than 100 µM. It also gave a TGI [37] greater than 100 µM, a TGI [38] greater than 100 µM and a TGI [39] greater than 100 µM. For the same molecule, the TGI [40] was greater than 100 µM, the TGI [41] was greater than 100 µM and the TGI [42] was greater than 100 µM. It also gave a TGI [43] greater than 100 µM, a TGI [44] greater than 100 µM and a TGI [45] greater than 100 µM. For the same molecule, the TGI [46] was greater than 100 µM, the TGI [47] was greater than 100 µM and the TGI [48] was greater than 100 µM. For the same molecule, the TGI [49] was greater than 100 µM, the TGI [50] was greater than 100 µM and the TGI [51] was greater than 100 µM. It also gave a TGI [52] greater than 100 µM, a TGI [53] greater than 100 µM and a TGI [54] greater than 100 µM. For the same molecule, the TGI [55] was greater than 100 µM, the TGI [56] was greater than 100 µM and the TGI [57] was greater than 100 µM. The TGI [58] was greater than 100 µM.

In the case of `COc1cc2c(cc1OCc1ccccc1)NC(=O)[C@@H]1C[C@@H](O)CN1C2=O`, the TGI [1] was greater than 100 µM, the TGI [2] was greater than 100 µM and the TGI [3] was greater than 100 µM. It also gave a TGI [4] greater than 100 µM, a TGI [5] greater than 100 µM and a TGI [6] greater than 100 µM. The TGI [7] was greater than 100 µM, the TGI [8] was greater than 100 µM and the TGI [9] was greater than 100 µM. The TGI [10] was greater than 100 µM, the TGI [11] was greater than 100 µM and the TGI [12] was greater than 100 µM. The TGI [13] was greater than 100 µM, the TGI [15] was greater than 100 µM and the TGI [16] was greater than 100 µM. It also gave a TGI [17] greater than 100 µM, a TGI [18] greater than 100 µM and a TGI [19] greater than 100 µM. It also gave a TGI [20] greater than 100 µM, a TGI [21] greater than 100 µM and a TGI [22] greater than 100 µM. It also gave a TGI [23] greater than 100 µM, a TGI [24] greater than 100 µM and a TGI [25] greater than 100 µM. The TGI [26] was greater than 100 µM, the TGI [27] was greater than 100 µM and the TGI [28] was greater than 100 µM. It also gave a TGI [29] greater than 100 µM, a TGI [30] greater than 100 µM and a TGI [31] greater than 100 µM. For the same molecule, the TGI [32] was greater than 100 µM, the TGI [33] was greater than 100 µM and the TGI [34] was greater than 100 µM. For the same molecule, the TGI [35] was greater than 100 µM, the TGI [36] was greater than 100 µM and the TGI [37] was greater than 100 µM. For the same molecule, the TGI [38] was greater than 100 µM, the TGI [39] was greater than 100 µM and the TGI [40] was greater than 100 µM. The TGI [41] was greater than 100 µM, the TGI [42] was greater than 100 µM and the TGI [43] was greater than 100 µM. The TGI [44] was greater than 100 µM, the TGI [59] was greater than 100 µM and the TGI [45] was greater than 100 µM. It also gave a TGI [46] greater than 100 µM, a TGI [47] greater than 100 µM and a TGI [48] greater than 100 µM. It also gave a TGI [49] greater than 100 µM, a TGI [50] greater than 100 µM and a TGI [51] greater than 100 µM. The TGI [52] was greater than 100 µM, the TGI [53] was greater than 100 µM and the TGI [54] was greater than 100 µM. For the same molecule, the TGI [55] was greater than 100 µM, the TGI [56] was greater than 100 µM and the TGI [57] was greater than 100 µM. It also gave a TGI [58] greater than 100 µM.

`CCCNC(=O)Cn1c(-c2ccccc2)cc2ccccc21` gave a TGI [1] greater than 100 µM, a TGI [2] greater than 100 µM and a TGI [3] greater than 100 µM. It also gave a TGI [5] greater than 100 µM, a TGI [6] greater than 100 µM and a TGI [7] greater than 100 µM. It also gave a TGI [8] greater than 100 µM, a TGI [9] greater than 100 µM and a TGI [10] greater than 100 µM. It also gave a TGI [11] greater than 100 µM, a TGI [12] greater than 100 µM and a TGI [13] greater than 100 µM. It also gave a TGI [14] greater than 100 µM, a TGI [15] greater than 100 µM and a TGI [16] greater than 100 µM. For the same molecule, the TGI [17] was greater than 100 µM, the TGI [18] was greater than 100 µM and the TGI [19] was greater than 100 µM. It also gave a TGI [20] greater than 100 µM, a TGI [21] greater than 100 µM and a TGI [22] greater than 100 µM. The TGI [23] was greater than 100 µM, the TGI [24] was greater than 100 µM and the TGI [25] was greater than 100 µM. For the same molecule, the TGI [26] was greater than 100 µM, the TGI [27] was greater than 100 µM and the TGI [28] was greater than 100 µM. The TGI [29] was greater than 100 µM, the TGI [30] was greater than 100 µM and the TGI [31] was greater than 100 µM. For the same molecule, the TGI [32] was greater than 100 µM, the TGI [33] was greater than 100 µM and the TGI [34] was greater than 100 µM. It also gave a TGI [35] greater than 100 µM, a TGI [36] greater than 100 µM and a TGI [37] of 60.1 µM. For the same molecule, the TGI [38] was greater than 100 µM, the TGI [39] was 70.4 µM and the TGI [40] was greater than 100 µM. It also gave a TGI [41] greater than 100 µM, a TGI [42] greater than 100 µM and a TGI [43] greater than 100 µM. It also gave a TGI [44] greater than 100 µM, a TGI [59] greater than 100 µM and a TGI [45] greater than 100 µM. It also gave a TGI [46] greater than 100 µM, a TGI [47] greater than 100 µM and a TGI [48] greater than 100 µM. The TGI [50] was greater than 100 µM, the TGI [51] was greater than 100 µM and the TGI [52] was greater than 100 µM. For the same molecule, the TGI [53] was greater than 100 µM, the TGI [54] was greater than 100 µM and the TGI [55] was 57.3 µM. For the same molecule, the TGI [56] was greater than 100 µM, the TGI [57] was greater than 100 µM and the TGI [58] was greater than 100 µM.

Molecule `COc1ccc(/C=C(\C#N)c2nc(-c3cc4ccccc4oc3=O)cs2)cc1` has a TGI [1] of 41.4 µM, a TGI [2] greater than 100 µM and a TGI [3] of 30.3 µM. It also gave a TGI [4] of 36.2 µM, a TGI [5] of 27.3 µM and a TGI [6] greater than 100 µM. The TGI [7] was greater than 100 µM, the TGI [8] was greater than 100 µM and the TGI [9] was 44.4 µM. For the same molecule, the TGI [10] was greater than 100 µM, the TGI [11] was greater than 100 µM and the TGI [12] was 57.1 µM. For the same molecule, the TGI [13] was 59.5 µM, the TGI [14] was greater than 100 µM and the TGI [15] was greater than 100 µM. It also gave a TGI [16] greater than 100 µM, a TGI [17] of 83.4 µM and a TGI [18] greater than 100 µM. The TGI [19] was greater than 100 µM, the TGI [20] was 49.3 µM and the TGI [21] was greater than 100 µM. For the same molecule, the TGI [22] was greater than 100 µM, the TGI [23] was greater than 100 µM and the TGI [24] was greater than 100 µM. For the same molecule, the TGI [25] was greater than 100 µM, the TGI [26] was greater than 100 µM and the TGI [27] was 62.2 µM. It also gave a TGI [28] of 36.6 µM, a TGI [29] of 91.3 µM and a TGI [30] greater than 100 µM. The TGI [31] was greater than 100 µM, the TGI [32] was 66.8 µM and the TGI [33] was greater than 100 µM. The TGI [34] was greater than 100 µM, the TGI [35] was 42.2 µM and the TGI [37] was 57.5 µM. The TGI [38] was 58.8 µM, the TGI [39] was greater than 100 µM and the TGI [40] was greater than 100 µM. For the same molecule, the TGI [41] was 86 µM, the TGI [42] was 29.5 µM and the TGI [43] was greater than 100 µM. It also gave a TGI [44] of 57.4 µM, a TGI [59] greater than 100 µM and a TGI [45] greater than 100 µM. For the same molecule, the TGI [46] was 34.9 µM, the TGI [47] was 54.9 µM and the TGI [48] was 55.9 µM. The TGI [50] was 65.6 µM, the TGI [51] was greater than 100 µM and the TGI [52] was 31 µM. It also gave a TGI [53] greater than 100 µM, a TGI [54] greater than 100 µM and a TGI [55] of 45.4 µM. The TGI [57] was greater than 100 µM and the TGI [58] was greater than 100 µM.
